Measured values: patent US5021236A, “Method of enhancing NMR imaging using chelated paramagnetic ions bound to biomolecules” (Schering Aktiengesellschaft, priority 1981, dated 1991)

What was measured:
aqueous solubility = assay type: physicochemical; conditions: in water
[1] = NMR detection of a defective blood-brain barrier in the region of a cranial abscess; assay type: in vivo; conditions: NMR diagnosis; complex in the form of salts with good aqueous solubility; preferably 0.1-0.5 mmole/kg
Text: In contrast to conventional X-ray diagnosis with radiopaque X-ray contrast media, in NMR diagnosis with paramagnetic contrast medium there is no linear dependence of the signal enhancement on the concentration used. […] For this reason, it was surprising that some pathological processes can be seen only after application of a strongly paramagnetic contrast medium, according to the invention, higher than the doses indicated in EP No. 71564 (which can be from 0.001 mmole/kg to 5 mmole/kg). […] For a dose greater than 0.1 mmole/kg, solutions of high concentrations up to 1 mole/l, preferably 0.25 to 0.75 mole/l, are necessary, since only in this way is the volume load reduced and handling of the injection solution assured.

aqueous solubility (aqueous solubility) | SMILES | dose at which a defective blood-brain barrier can be detected [1] [mmol/kg]
good aqueous solubility | O=C([O-])CCCCCCCCCCNC(=O)CN(CCN(CCN(CC(=O)[O-])CC(=O)NCCCCCCCCCCC(=O)[O-])CC(=O)[O-])CC(=O)[O-].[Gd+3].[Na+].[Na+] [Example 2, disodium salt of gadolinium(III) complex of 13,23-dioxo-15,18,21-tris(carboxymethyl)-12,15,18,21,24-pentaazapentatriacontanedioic acid] | 
insoluble in water | O=C([O-])CN(CCN(CC(=O)[O-])CC(=O)NCCCCCCCCCCC(=O)O)CCN(CC(=O)[O-])CC(=O)NCCCCCCCCCCC(=O)O.[Gd+3] [Gadolinium(III) complex of 13,23-dioxo-15,18,21-tris(carboxymethyl)-12,15,18,21,24-pentaazapentatriacontanedioic acid] | 
 | O=C([O-])CN(CCN(CC(=O)[O-])CC(=O)O)CCN(CC(=O)[O-])CC(=O)O.[Gd+3] [gadolinium diethylenetriaminepentaacetic acid] | 0.05 to 2.5
 | O=C(O)CN(CC(=O)O)C1CCCCC1N(CC(=O)O)CC(=O)O.[Mn] (stereo not shown) [manganese-1,2-cyclohexenediaminetetraacetic acid] | 0.05 to 2.5
